Source: US10966962B2, “Method for treating neurodegenerative diseases” (THE BOARD OF TRUSTEES OF THE LELAND STANFORD JUNIOR …, priority 2014, dated 2021)

Tests used:
Type in all cases: in vivo, mice
[1] = tested on: brain perivascular macrophages; test: 2-NBDG glucose uptake in brain perivascular macrophages of ALS transgenic animals; conditions: 25 mg/kg orally 3 times a week for 8 weeks, 13 weeks of age
Description: ALS transgenic animals were orally treated 3 times a week for 8 weeks with 0.5% methylcellulose or ZLN005 (Sigma) at 25 mg/kg in 0.5% methylcellulose, starting at 5 weeks of age. For measuring brain perivascular macrophages, ALS-Ctrl (n=8), ALS-ZLN (n=8), and WT animal (n=12) were sacrificed at 13 weeks of age. PBS-perfused brain tissues of sacrificed animals were digested with Collagenase IV and processed for flow cytometry. Brain perivascular macrophages were stained with 2-NBDG, the fluorescent glucose analog, to measure glucose uptake for flow cytometric acquisition (LSRII, BD) and analysis (FlowJo). The results are summarized in FIG. 20; Y-axis represents % of brain perivascular macrophages that have taken up the glucose analog, 2-NBDG. […] ANOVA was used for statistical analysis.

[2] = tested on: microglia; test: Microglia flow cytometry in acute STZ model of AD (TNF-α, ThioltrackerViolet, MitotrackerRed)
Description: To induce symptoms of AD, STZ (3 mg/kg, Sigma) was administered via intracerebral injection ([…] et al, Int J Neurosci, PMID 24494726, 2014). This is a well-established model of the sporadic form of AD. Briefly, animals were anesthetized and STZ solution in 5 μl artificial cerebrospinal fluid (Harvard Apparatus) was injected through the skull with a 50 μl syringe. Control animals received a similar volume of artificial cerebrospinal fluid without STZ. The injections were performed twice, on Day 1 and Day 3. […] Treatment with ZLN005 was continued on a daily schedule until Day 7. […] Microglia were phenotyped with antibodies directed against mouse TNF-α (Biolegend) and metabolic dyes […], and MitotrackerRed (Invitrogen) for flow cytometric acquisition (LSRII, BD) and analysis (FlowJo). […] ANOVA was used for statistical analyses.

[3] = tested on: MPTP-treated animals; test: Wheel-running test in MPTP model of PD; conditions: 25 mg/kg orally 7 days, accelerating speed 5-15 rpm, Day 8
Description: The wheel-running test has been widely used as one of the most reliable measurements of behavioral dysfunction in animal models of neurodegeneration ([…] et al, Behav Brain Res, 125:109-25, 2001). In this study, animals were trained to run on a treadmill at specific speed and training duration before undergoing a formal test of motor skills. Motor performance of animals was evaluated by the time (seconds) that they remained running on the treadmill, which required motor coordination and strength. […] Animals with microglia-specific deletion of Ppargc1a were generated as described in Example 1. At 7 weeks of age, these animals were subjected to 1.5 weeks of training on a treadmill at a constant speed 10 rpm (rotations per minute) and then 1.5 weeks of training at an accelerating speed from 5-15 rpm. After the training period at 10 weeks of age, animals were treated with MPTP and tested for motor performance at an accelerating speed from 5-15 rpm. […] Unpaired t-tests were used for statistical analyses.

[4] = tested on: AD transgenic animals; test: Nest building in 5XFAD AD transgenic animals; conditions: 25 mg/kg orally 3 times a week for 4 weeks, 7 weeks of age, vs 5XFAD-Ctrl
Description: As described in Example 7, nest-building skill is one of the most reliable measurements of motor function. In this test, AD transgenic animals were orally treated 3 times a week for 4 weeks with 0.5% methylcellulose or ZLN005 (Sigma) at 25 mg/kg in 0.5% methylcellulose, starting at 3 weeks of age. At 7 weeks of age, animals were given cotton pads and the amount of cotton that was shredded over a 24-hour period was measured. […] Unpaired t-test was used for statistical analysis.

[5] = tested on: brains of STZ-treated-animals; test: Gene expression in brain in acute STZ model of AD; conditions: 25 mg/kg orally daily until Day 4
Description: To induce symptoms of AD, STZ (3 mg/kg, Sigma) was administered via intracerebral injection ([…] et al, Int J Neurosci, PMID 24494726, 2014). This is a well-established model of the sporadic form of AD. Briefly, animals were anesthetized and STZ solution in 5 μl artificial cerebrospinal fluid (Harvard Apparatus) was injected through the skull with a 50 μl syringe. Control animals received a similar volume of artificial cerebrospinal fluid without STZ. The injections were performed twice, on Day 1 and Day 3. […] Treatment with ZLN005 was continued on a daily schedule until Day 4.

[6] = tested on: CD45hi CD11b+F4/80+brain perivascular macrophages; test: Frequency of brain perivascular macrophages in ALS transgenic animals; conditions: 25 mg/kg orally 3 times a week for 8 weeks, 13 weeks of age
Description: ALS transgenic animals were orally treated 3 times a week for 8 weeks with 0.5% methylcellulose or ZLN005 (Sigma) at 25 mg/kg in 0.5% methylcellulose, starting at 5 weeks of age. For measuring the frequency of CD45hi CD11b+F4/80+brain perivascular macrophages, ALS-Ctrl (n=13), ALS-ZLN (n=17), and WT animals (n=17) were sacrificed at 13 weeks of age. PBS-perfused brain tissues of sacrificed animals were digested with Collagenase IV and processed for flow cytometry. The results are summarized in FIG. 19; Y-axis represents % of brain perivascular macrophages among total brain immune cells in the brain. […] ANOVA was used for statistical analysis.

[7] = tested on: dopaminergic neurons in the substantia nigra; test: Immunohistochemical analysis of dopaminergic neurons in MPTP-treated animals; conditions: 25 mg/kg orally once a day for 7 days, Day 8
Description: For protein expression studies, animals were sacrificed on Day 8, 24 hours after the 7th oral dosage of ZLN005, and paraformaldehyde-perfused brain tissues were processed for immunohistochemical analysis of dopaminergic neurons in the substantia nigra. The brown staining represents tyrosine hydroxylase expression in dopaminergic neurons of the substantia nigra.

[8] = tested on: MPTP-treated animals; test: Nest-building test in MPTP model of PD; conditions: one dose 25 mg/kg
Description: Impaired nest-building skill has been widely used as one of the most reliable indication of motor dysfunction in the MPTP model of […] et al, Behav Brain Res, 125:109-25, 2001). In this test, animals are given cotton pads to be used as nestling, and are tested for their abilities to tear off the cotton pads into small pieces to build a nest; these abilities require fine motor coordination. Animals with microglia-specific deletion of Ppargc1a and controls were generated as described in Example 1. […] Control animals received a similar volume of PBS. Immediately after the last dosage of MPTP, each animal was put in one cage and given two cotton pads to be used in nestling; the appearance of the cotton pads was evaluated 16 hours later. The results are shown in FIG. 7 as weights of shredded nestlets (n=9-10 animals per treatment group). […] MPTP-ZLN animals generated more cotton-debris in comparison to the MPTP-Ctrl group. […] Unpaired t-tests were used for statistical analyses.

[9] = STZ-treated animals, 25 mg/kg orally daily until Day 7

CC(C)(C)c1ccc(-c2nc3ccccc3[nH]2)cc1 [ZLN005, 2-(4-tert-butylphenyl)-1H-benzimidazole]
glucose uptake (2-NBDG) in brain perivascular macrophages [1]: decreased | TNF-α production in microglia [2, 9]: suppressed TNF-α production | mitochondrial potential in microglia (MitotrackerRed) [2, 9]: enhanced | production of glutathione in microglia (ThioltrackerViolet) [2, 9]: enhanced | glycolysis in microglia ([2]; microglia isolated from STZ-treated animals): enhanced glycolysis | latency to fall, wheel running ([3]; MPTP-treated Cre animals): not present in Cre animals | latency to fall, wheel running ([3]; MPTP-treated FF animals): performed significantly better than vehicle treated mice | nest building, amount of cotton shredded over 24 hours [4]: significantly increased the amount of cotton shredded | expression of genes involved in Ppargc1a signaling and antioxidant defense (Tfam, Cytc) in the brain [5]: increased expression | expression of genes involved in β-amyloid generation (App and Psen1) in the brain [5]: decreased the expression | percentage of brain perivascular macrophages among total brain immune cells [6]: decreased | depletion of dopaminergic neurons of the substantia nigra (tyrosine hydroxylase staining) [7]: reversed | nest-building, weights of shredded nestlets (fine motor skills) ([8]; MPTP-treated Cre animals): present only in FF animals but not in Cre animals | nest-building, weights of shredded nestlets (fine motor skills) ([8]; MPTP-treated FF animals, evaluated 16 hours later, vs MPTP-Ctrl): marked improvement in their fine motor skills
